Like-named read-outs stand apart in the source and are kept apart here.
Legend:
[1] = system: human multiple myeloma cell line, OPM-2; test: Cell viability assay (OPM-2 10 FBS), CellTiter-Glo; type: cell-based
Procedure, shortened: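 Cells were seeded at 3000 cells/well in RPMI 1640 with 10% FBS and exposed to serially diluted compounds for 16 h at 37 °C, 5% CO2.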

[2] = target: recombinant human Mcl-1 (residues 171-327) / Bim interaction (Homo sapiens (Human), UniProt Q07820); test: biochemical; type: binding; conditions: read-out: Mcl-1 HTRF IC50
Sequence of recombinant human Mcl-1 (residues 171-327) / Bim interaction (Q07820 171-327): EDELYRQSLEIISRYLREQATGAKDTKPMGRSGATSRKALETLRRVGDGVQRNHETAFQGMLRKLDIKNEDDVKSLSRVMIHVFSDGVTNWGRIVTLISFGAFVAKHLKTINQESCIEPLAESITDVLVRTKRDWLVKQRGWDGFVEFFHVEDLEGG
Procedure: The inhibition of the Mcl-1/Bim interaction was measured using a time-resolved fluorescence resonance energy transfer (TR-FRET) assay. […] The TR-FRET assay was conducted in a 384-well white OptiPlate™ (PerkinElmer, Waltham, Mass.) in a total volume of 40 μL. The reaction mixture contained 0.1 nM Mcl-1(171-327), 0.05 nM biotin-Bim (51-76), 0.05 nM LANCE® Eu-W1024 Anti-6×His (PerkinElmer), 0.072 nM Streptavidin-Xlent (Cisbio, Bedford, Mass.), and serially diluted test compounds in the binding buffer of 20 mM Hepes, pH 7.5, 150 mM NaCl, 0.016 mM Brij®35, and 1 mM dithiothreitol. Test compounds were pre-incubated with Mcl-1(171-327) and biotin-Bim (51-76) for 60 min before addition of the detection mixture (LANCE® Eu-W1024 Anti-6×His and Streptavidin-Xlent). The reaction plates were further incubated overnight and then were read on an Envision® multimode reader (PerkinElmer). Fluorescence signals were measured at 620 nm (40-nm bandwidth) and 665 nm (7.5-nm bandwidth) with a 60 is delay after excitation at 320 nm (75-nm bandwidth). The signal ratio at 665/620 nm corresponded to the Mcl-1/Bim interaction and was used in all data analyses. The IC50 values of test compounds were determined from duplicate data by analyzing competition curves using a four-parameter sigmoidal model in GraphPad Prism (GraphPad Software, San Diego, Calif.) or in Genedata Screener® (Genedata, Basel, Switzerland).

[3] = Homo sapiens, OPM-2, 16 h, read-out: OPM-2 10% FBS IC50 IP, OPM-2 cells, 10% FBS, 16 h, CellTiter-Glo
[4] = TR-FRET, Mcl-1(171-327) / biotin-Bim (51-76)
[5] = Homo sapiens, OPM-2, 16 h, read-out: OPM-2 10% FBS IC50 IP, OPM-2 cells, 10% FBS, 16 h incubation
[6] = 0.1 nM Mcl-1(171-327), 0.05 nM biotin-Bim (51-76)
[7] = read-out: OPM-2 10% FBS IC50 IP, OPM-2 cells, 10% FBS, 16 h, CellTiter-Glo

Structure (SMILES) | IC50 [1, 3] | IC50 [2, 4] | further results
CO[C@@]1(C(F)F)/C=C/C[C@H](C)[C@@H](C)S(=O)(=O)NC(=O)c2ccc3c(c2)N(C[C@@H]2CC[C@H]21)C[C@@]1(CCCc2cc(Cl)ccc21)CO3 [Example 100071, (1S,3′R,6′R,7′S,8′E,11′S,12′R)-6-chloro-7′-(difluoromethyl)-7′-methoxy-11′,12′-dimethyl-3,4-dihydro-2H,15′H-spiro[naphthalene-1,22′-[20]oxa[13]thia[1,14]diazatetracyclo [14.7.2.0~3,6~.0~19,24~]pentacosa[8,16,18,24]tetraen]-15′-one 13′,13′-dioxide] | 588 nM | 1.54 nM | 
CO[C@]1(CN2CCN(C3COC3)CC2)/C=C/[C@H](C)[C@H](C)CS(=O)(=O)NC(=O)c2ccc3c(c2)N(C[C@@H]2CC[C@H]21)C[C@@]1(CCCc2cc(Cl)ccc21)CO3 [Example 159, (1S,3′R,6′R,7′R,8′E,10′S,11′S)-6-chloro-7′-methoxy-10′,11′-dimethyl-7′-((4-(3-oxetanyl)-1-piperazinyl)methyl)-3,4-dihydro-2H,15′H-spiro[naphthalene-1,22′-[20]oxa[13]thia[1,14]diazatetracyclo [14.7.2.0~3,6~.0~19,24~]pentacosa[8,16,18,24]tetraen]-15′-one 13′,13′-dioxide] |  |  | IC50 [1, 5]: 79 nM; IC50 [2, 6]: 0.096 nM
CO[C@@]1(CN2CC(C)(N(C)C)C2)/C=C/[C@H](C)[C@H](C)CS(=O)(=O)NC(=O)c2ccc3c(c2)N(C[C@@H]2CC[C@H]21)C[C@@]1(CCCc2cc(Cl)ccc21)CO3 [Example 162, (1S,3′R,6′R,7′S,8′E,10′S,11′S)-6-chloro-7′-((3-(dimethylamino)-3-methyl-1-azetidinyl)methyl)-7′-methoxy-10′,11′-dimethyl-3,4-dihydro-2H,15′H-spiro[naphthalene-1,22′-[20]oxa[13]thia[1,14]diazatetracyclo [14.7.2.0~3,6~.0~19,24~]pentacosa[8,16,18,24]tetraen]-15′-one 13′,13′-dioxide] |  |  | IC50 [1, 5]: 55 nM; IC50 [2, 6]: 0.072 nM
CO[C@@]1(C#CCCN2CCOCC2)/C=C/C[C@H](C)[C@@H](C)S(=O)(=O)NC(=O)c2ccc3c(c2)N(C[C@@H]2CC[C@H]21)C[C@@]1(CCCc2cc(Cl)ccc21)CO3 (single isomer, unassigned) [Example 100012] | 1130 nM | 0.275 nM | 
C[C@@H]1[C@@H](C)CCC[C@](CO)(NC(=O)c2ccccc2)[C@@H]2CC[C@H]2CN2C[C@@]3(CCCc4cc(Cl)ccc43)COc3ccc(cc32)C(=O)NS1(=O)=O [Example 100256, N-((1S,3′R,6′R,7′S,11′S,12′R)-6-chloro-7′-(hydroxymethyl)-11′,12′-dimethyl-13′,13′-dioxido-15′-oxo-3,4-dihydro-2H-spiro[naphthalene-1,22′-[20]oxa[13]thia[1,14]diazatetracyclo [14.7.2.0~3,6~.0~19,24~]pentacosa[16,18,24]trien]-7′-yl)benzamide] | 1200 nM | 5.04 nM | 
CO[C@@]1([C@@H](C)O)CCC[C@H](C)[C@@H](C)S(=O)(=O)NC(=O)c2ccc3c(c2)N(C[C@@H]2CC[C@H]21)C[C@@]1(CCCc2cc(Cl)ccc21)CO3 [Example 100483, (1S,3′R,6′R,7′S,11′S,12′R)-6-chloro-7′-((1R)-1-hydroxyethyl)-7′-methoxy-11′,12′-dimethyl-3,4-dihydro-2H,15′H-spiro[naphthalene-1,22′-[20]oxa[13]thia[1,14]diazatetracyclo [14.7.2.0~3,6~.0~19,24~]pentacosa[16,18,24]trien]-15′-one 13′,13′-dioxide] | 1690 nM | 1.66 nM | 
C=C(C)[C@@H](O)C[C@]1(OC)/C=C/C[C@H](C)[C@@H](C)S(=O)(=O)NC(=O)c2ccc3c(c2)N(C[C@@H]2CC[C@H]21)C[C@@]1(CCCc2cc(Cl)ccc21)CO3 [Example 100470, (1S,3′R,6′R,7′S,8′E,11′S,12′R)-6-chloro-7′-((2S)-2-hydroxy-3-methyl-3-buten-1-yl)-7′-methoxy-11′,12′-dimethyl-3,4-dihydro-2H,15′H-spiro[naphthalene-1,22′-[20]oxa[13]thia[1,14]diazatetracyclo [14.7.2.0~3,6~.0~19,24~]pentacosa[8,16,18,24]tetraen]-15′-one 13′,13′-dioxide] |  |  | IC50 [1, 7]: 9650 nM; IC50 [2]: 0.576 nM
C[C@@H]1[C@@H](C)CCC[C@@](O)(CCN2CCOCC2)[C@@H]2CC[C@H]2CN2C[C@@]3(CCCc4cc(Cl)ccc43)COc3ccc(cc32)C(=O)NS1(=O)=O [Example 100096, (1S,3′R,6′R,7′R,11′S,12′R)-6-chloro-7′-hydroxy-11′,12′-dimethyl-7′-(2-(4-morpholinyl)ethyl)-3,4-dihydro-2H,15′H-spiro[naphthalene-1,22′-[20]oxa[13]thia[1,14]diazatetracyclo [14.7.2.0~3,6~.0~19,24~]pentacosa[16,18,24]trien]-15′-one 13′,13′-dioxide] |  | 0.624 nM | IC50 [1, 7]: 517 nM
CCO[C@]1(CN2CCN(C(C)(C)C)CC2)/C=C/C[C@H](C)[C@@H](CCOC)S(=O)(=O)NC(=O)c2ccc3c(c2)N(C[C@@H]2CC[C@H]21)C[C@@]1(CCCc2cc(Cl)ccc21)CO3 [Example 190, (1S,3′R,6′R,7′R,8′E,11′S,12′R)-7′-((4-tert-butyl-1-piperazinyl)methyl)-6-chloro-7′-ethoxy-12′-(2-methoxyethyl)-11′-methyl-3,4-dihydro-2H,15′H-spiro[naphthalene-1,22′-[20]oxa[13]thia[1,14]diazatetracyclo [14.7.2.0~3,6~.0~19,24~]pentacosa[8,16,18,24]tetraen]-15′-one 13′,13′-dioxide] |  |  | IC50 [1, 5]: 53 nM; IC50 [2, 6]: 0.087 nM
C[C@@H]1[C@@H](C)C/C=C/[C@]2(CNCCO2)[C@@H]2CC[C@H]2CN2C[C@@]3(CCCc4cc(Cl)ccc43)COc3ccc(cc32)C(=O)NS1(=O)=O [Example 134, (1S,3′R,6′R,7′R,8′E,11′S,12′R)-6-chloro-11′,12′-dimethyl-3,4-dihydro-2H,15′H-dispiro[naphthalene-1,22′-[20]oxa[13]thia[1,14]diazatetracyclo [14.7.2.0~3,6~.0~19,24~]pentacosa[8,16,18,24]tetraene-7′,2″-[1,4]oxazinan]-15′-one 13′,13′-dioxide] |  |  | IC50 [1, 5]: 3000 nM; IC50 [2, 6]: 4.64 nM
CO[C@]1(CCO)/C=C/C[C@H](C)[C@@H](C)S(=O)(=O)NC(=O)c2ccc3c(c2)N(C[C@@H]2CC[C@H]21)C[C@@]1(CCCc2cc(Cl)ccc21)CO3 [Example 100217, (1S,3′R,6′R,7′R,8′E,11′S,12′R)-6-chloro-7′-(2-hydroxyethyl)-7′-methoxy-11′,12′-dimethyl-3,4-dihydro-2H,15′H-spiro[naphthalene-1,22′-[20]oxa[13]thia[1,14]diazatetracyclo [14.7.2.0~3,6~.0~19,24~]pentacosa[8,16,18,24]tetraen]-15′-one 13′,13′-dioxide] | 130 nM | 0.183 nM | 
C[C@@H]1[C@@H](C)CCC[C@]2(CC(N(C)C)=NO2)[C@@H]2CC[C@H]2CN2C[C@@]3(CCCc4cc(Cl)ccc43)COc3ccc(cc32)C(=O)NS1(=O)=O [Example 100136, (1S,3′R,6′R,7′S,11′S,12′R)-6-chloro-3″- (dimethylamino)-11′,12′-dimethyl-3,4-dihydro-2H,4″H,15′H-dispiro[naphthalene-1,22′-[20]oxa[13]thia[1,14]diazatetracyclo [14.7.2.0~3,6~.0~19,24~]pentacosa[16,18,24]triene-7′,5″-[1,2]oxazol]-15′-one 13′,13′-dioxide] | 556 nM | 0.368 nM | 
C[C@@H]1[C@@H](C)C/C=C/[C@](O)(c2ccncc2F)[C@@H]2CC[C@H]2CN2C[C@@]3(CCCc4cc(Cl)ccc43)COc3ccc(cc32)C(=O)NS1(=O)=O [Example 100368, (1S,3′R,6′R,7′R,8′E,11′S,12′R)-6-chloro-7′-(3-fluoro-4-pyridinyl)-7′-hydroxy-11′,12′-dimethyl-3,4-dihydro-2H,15′H-spiro[naphthalene-1,22′-[20]oxa[13]thia[1,14]diazatetracyclo [14.7.2.0~3,6~.0~19,24~]pentacosa[8,16,18,24]tetraen]-15′-one 13′,13′-dioxide] | 611 nM | 0.377 nM | 
C[C@@H]1[C@@H](C)CCC[C@@](O)([C@@H]2CCN(C)C2=O)[C@@H]2CC[C@H]2CN2C[C@@]3(CCCc4cc(Cl)ccc43)COc3ccc(cc32)C(=O)NS1(=O)=O [Example 100203, (1S,3′R,6′R,7′S,11′S,12′R)-6-chloro-7′-hydroxy-11′,12′-dimethyl-7′-((3S)-1-methyl-2-oxo-3-pyrrolidinyl)-3,4-dihydro-2H,15′H-spiro[naphthalene-1,22′-[20]oxa[13]thia[1,14]diazatetracyclo [14.7.2.0~3,6~.0~19,24~]pentacosa[16,18,24]trien]-15′-one 13′,13′-dioxide] |  | 0.285 nM | IC50 [1, 7]: 491 nM
C[C@@H]1[C@@H](C)C/C=C/[C@@](O)(C(F)F)[C@@H]2CC[C@H]2CN2C[C@@]3(CCCc4cc(Cl)ccc43)COc3ccc(cc32)C(=O)NS1(=O)=O [Example 100069, (1S,3′R,6′R,7′S,8′E,11′S,12′R)-6-chloro-7′-(difluoromethyl)-7′-hydroxy-11′,12′-dimethyl-3,4-dihydro-2H,15′H-spiro[naphthalene-1,22′-[20]oxa[13]thia[1,14]diazatetracyclo [14.7.2.0~3,6~.0~19,24~]pentacosa[8,16,18,24]tetraen]-15′-one 13′,13′-dioxide] |  | 0.457 nM | IC50 [1, 7]: 250 nM
